In patent US8299021B2, “Macrocyclic inhibitors of hepatitis C virus replication” (InterMune, Inc., priority 2005, dated 2012):
Read-outs that look alike come from different tables or passages of the source.

Target: T1, NS3-NS4 protease (full-length NS3/NS4A-2) (Hepatitis C virus genotype 1a, UniProt P27958)
T1 construct: Recombinant E. coli or Baculovirus full-length NS3 was diluted to 3.33 μM with assay buffer; made in house; host or cells: E. coli or baculovirus (insect cells)
Assay: NS3-NS4 protease assay / NS3 inhibition assay (RETS1 substrate, fluorescence kinetic read)
Type: biochemical
Experimental: NS3 complex formation with NS4A-2.
The appropriate amount of NS4A-2 to 8.3 mM in assay buffer was added to equal the volume of NS3 in step 2.1.1 (conversion factor—3.8 mg/272 μL assay buffer). The material was transferred to an eppendorf tube and place in water bath in 4° C. refrigerator.
After equilibration to 4° C., equal volumes of NS3 and NS4A-2 solutions were combined in an eppendorf tube, mix gently with a manual pipettor, and incubate mixture for 15 minutes in the 4° C. water bath.
After 15 minutes at 4° C., the NS3/NS4A-2 eppendorf tube was removed and place it in a room temperature water bath for 10 minutes. NS3/NS4A-2 was alliquoted at appropriate volumes and store at −80° C. (E. coli NS3 run at 2 nM in assay, aliquot at 25 μL. BV NS3 run at 3 nM in assay, aliquot at 30 μL).
Sample compounds were dissolved to 10 mM in DMSO then diluted to 2.5 mM (1:4) in DMSO.
The E. coli. […] Using the manual multichannel pipettor, careful not to introduce bubbles into the plate, add 50 μL assay buffer to wells A01-H01 of a black Costar 96-well polypropylene storage plate.
Using the manual multichannel pipettor, careful not to introduce bubbles into the plate, add 50 μL of diluted NS3/NS4A-2 from step 2.2.6 to wells A02-H12 of plate in step 2.2.7. Using the manual multichannel pipettor, careful not to introduce bubbles into the plate, transfer 25 μL of the wells in drug dilution plate in step 2.2.5 to corresponding wells in assay plate in step 2.2.8. Change tips on multichannel pipettor for each row of compounds transferred. Using the manual multichannel pipettor, careful not to introduce bubbles into the plate, mix the wells from the assay plate in step 2.2.9 by aspirating and dispensing 35 μL of the 75 μL in each well five times. Change tips on multichannel pipettor for each row of wells mixed. Cover plate with a polystyrene plate lid and pre-incubate the plate from step 2.2.10 containing NS3 protease and sample compounds 10 minutes at room temperature. While plate from step 2.2.11 is pre-incubating, dilute RETS1 substrate in a 15 mL polypropylene centrifuge tube.
After the plate in step is done pre-incubating, and using the manual multichannel, add 25 μL of substrate to all wells on the plate. Quickly mix the plate as in step 2.2.10, mixing 65 μL of the 100 μL in the wells.
Read the plate in kinetic mode on the Molecular Devices SpectraMax
IC50s are determined using a four parameter curve fit equation, and converted to Ki's using the following Km's:
where Ki=IC50/(1+[S]/Km))

[1] = Table 22, read-out: NS3-NS4 IC50

T1 sequence (P27958 1027-1657): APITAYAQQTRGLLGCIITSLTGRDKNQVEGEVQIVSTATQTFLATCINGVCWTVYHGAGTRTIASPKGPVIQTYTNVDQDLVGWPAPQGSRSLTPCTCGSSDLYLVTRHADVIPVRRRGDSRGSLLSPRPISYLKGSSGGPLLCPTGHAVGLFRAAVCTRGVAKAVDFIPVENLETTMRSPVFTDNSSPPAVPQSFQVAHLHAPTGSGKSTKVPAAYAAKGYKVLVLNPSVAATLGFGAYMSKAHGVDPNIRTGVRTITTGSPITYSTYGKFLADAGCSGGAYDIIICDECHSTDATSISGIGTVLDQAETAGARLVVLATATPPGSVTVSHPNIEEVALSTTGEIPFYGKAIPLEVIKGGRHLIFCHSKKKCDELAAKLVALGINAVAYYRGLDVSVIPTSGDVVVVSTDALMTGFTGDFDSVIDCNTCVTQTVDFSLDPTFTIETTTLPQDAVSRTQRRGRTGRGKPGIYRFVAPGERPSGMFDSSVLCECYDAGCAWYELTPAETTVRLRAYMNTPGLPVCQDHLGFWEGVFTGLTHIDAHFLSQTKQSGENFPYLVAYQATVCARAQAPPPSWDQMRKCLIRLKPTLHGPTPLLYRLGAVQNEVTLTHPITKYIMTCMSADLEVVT

Compound	IC50 (read-out: NS3-NS4 IC50) [nM]	also measured
CC(C)(C)OC(=O)N[C@H]1CCCCC/C=C\[C@@H]2C[C@@]2(C(=O)NS(=O)(=O)c2ccccc2)NC(=O)[C@@H]2CCCN2C1=O [Compound 2101]	< 10000	–
C[C@H](NC(=O)[C@@]12C[C@H]1/C=C\CCCCC[C@H](NC(=O)OC(C)(C)C)C(=O)N1CCC[C@H]1C(=O)N2)c1ccccc1 [Compound 2301]	–	IC50 [1]: < 10000 nM
CCNS(=O)(=O)NC(=O)[C@@]12C[C@H]1/C=C\CCCCC[C@H](NC(=O)OC(C)(C)C)C(=O)N1CCC[C@H]1C(=O)N2 [Compound 2216]	< 10000	–
CC(C)(C)OC(=O)N[C@H]1CCCCC/C=C\[C@@H]2C[C@@]2(C(=O)NS(=O)(=O)Nc2ccc(Cl)c(Cl)c2)NC(=O)[C@@H]2CCCN2C1=O [Compound 2234]	< 1000	–
CC(C)CNS(=O)(=O)NC(=O)[C@@]12C[C@H]1/C=C\CCCCC[C@H](NC(=O)OC(C)(C)C)C(=O)N1CCC[C@H]1C(=O)N2 [Compound 2218]	< 100	–
C[C@@H](NC(=O)[C@@]12C[C@H]1/C=C\CCCCC[C@H](NC(=O)OC(C)(C)C)C(=O)N1CCC[C@H]1C(=O)N2)c1ccccc1 [Compound 2311]	–	IC50 [1]: < 1000 nM
CCCCS(=O)(=O)NC(=O)[C@@]12C[C@H]1/C=C\CCCCC[C@H](NC(=O)OC(C)(C)C)C(=O)N1CCC[C@H]1C(=O)N2 [Compound 2106]	< 100	–
CC(C)(C)OC(=O)N[C@H]1CCCCC/C=C\[C@@H]2C[C@@]2(C(=O)NS(=O)(=O)NC2CCCC2)NC(=O)[C@@H]2CCCN2C1=O [Compound 2215]	< 1000	–
CC(C)(C)OC(=O)N[C@H]1CCCCC/C=C\[C@@H]2C[C@@]2(C(=O)NS(=O)(=O)NCC2CC2)NC(=O)[C@@H]2CCCN2C1=O [Compound 2245]	< 100	–
CC1CCCCN1S(=O)(=O)NC(=O)[C@@]12C[C@H]1/C=C\CCCCC[C@H](NC(=O)OC(C)(C)C)C(=O)N1CCC[C@H]1C(=O)N2 (some centres unmarked) [Compound 2225]	< 10000	–
CC(C)(C)OC(=O)N[C@H]1CCCCC/C=C\[C@@H]2C[C@@]2(C(=O)NS(=O)(=O)c2ccc(Cl)cc2)NC(=O)[C@@H]2CCCN2C1=O [Compound 2129]	< 10000	–
CC(C)(C)OC(=O)N[C@H]1CCCCC/C=C\[C@@H]2C[C@@]2(C(=O)NS(=O)(=O)Nc2ccc(Cl)cc2)NC(=O)[C@@H]2CCCN2C1=O [Compound 2247]	> 10000	–
Cc1ccc([S+]([O-])NC(=O)C23CC2C=CCCCCCC(NC(=O)OC(C)(C)C)C(=O)N2CC(OC(=O)N4Cc5ccccc5C4)CC2C(=O)N3)cc1 (centres unmarked) [Compound 2603]	–	IC50 (Table 25, read-out: NS3-NS4 IC50): < 10000 nM
CC(C)(C)OC(=O)N[C@H]1CCCCC/C=C\[C@@H]2C[C@@]2(C(=O)NCc2cccc(C(=O)O)c2)NC(=O)[C@@H]2CCCN2C1=O [Compound 2310]	–	IC50 [1]: < 1000 nM
CCCS(=O)(=O)NC(=O)[C@@]12C[C@H]1/C=C\CCCCC[C@H](NC(=O)OC(C)(C)C)C(=O)N1CCC[C@H]1C(=O)N2 [Compound 2105]	< 1000	–
O=C(N[C@H]1CCCCC/C=C\[C@@H]2C[C@@]2(C(=O)NS(=O)(=O)C2CC2)NC(=O)[C@@H]2C[C@@H](OC(=O)N3Cc4cccc(F)c4C3)CN2C1=O)C(O)C(F)(F)F (single isomer, unassigned) [Compound 247]	–	IC50: < 100 nM
CCOC(=O)[C@@]12C[C@H]1/C=C\CCCCC[C@H](NC(=O)OC(C)(C)C)C(=O)N1Cc3ccc(Oc4cccc(Cl)c4)cc3CC1C(=O)N2 (some centres unmarked) [Compound 2006]	< 1000	–
CC(C)(C)OC(=O)N[C@H]1CCCCC/C=C\[C@@H]2C[C@@]2(C(=O)Nc2ccccc2Cl)NC(=O)[C@@H]2CCCN2C1=O [Compound 2309]	–	IC50 [1]: < 1000 nM
Cyclopentyl (1aR,9S,19aR)-15-(3-chlorophenoxy)-10,18-dioxo-19a-(phenylsulfonylcarbamoyl)-1a,2,3,4,5,6,7,8,9,10,12,17,17a,18,19,19a-hexadecahydro-1H-2,5-diaza-bicyclo[13.1.0]hexadec-1(15)-eno[5,4-b]isoquinolin-9-ylcarbamate [Compound 2010]	< 10000	–
COC(=O)C1CCCCN1S(=O)(=O)NC(=O)[C@@]12C[C@H]1/C=C\CCCCC[C@H](NC(=O)OC(C)(C)C)C(=O)N1CCC[C@H]1C(=O)N2 (some centres unmarked) [Compound 2221]	< 1000	–
CC(C)(C)OC(=O)N[C@H]1CCCCC/C=C\[C@@H]2C[C@@]2(C(=O)NS(=O)(=O)c2ccc([N+](=O)[O-])cc2)NC(=O)[C@@H]2CCCN2C1=O [Compound 2102]	< 10000	–
CC(C)(C)OC(=O)N[C@H]1CCCCC/C=C\[C@@H]2C[C@@]2(C(=O)NCc2ccc(Cl)cc2)NC(=O)[C@@H]2CCCN2C1=O [Compound 2308]	–	IC50 [1]: < 1000 nM
CC(C)N(C(C)C)S(=O)(=O)NC(=O)[C@@]12C[C@H]1/C=C\CCCCC[C@H](NC(=O)OC(C)(C)C)C(=O)N1CCC[C@H]1C(=O)N2 [Compound 2209]	< 1000	–
CC(C)(C)OC(=O)NC1CCCCCC=CC2CC2(C(=O)NS(=O)(=O)c2cc(Cl)cc(Cl)c2)NC(=O)C2CCCN2C1=O (centres unmarked) [Compound 2108]	< 10000	–
CC(C)(C)OC(=O)N[C@H]1CCCCC/C=C\[C@@H]2C[C@@]2(C(=O)NS(=O)(=O)Nc2ccccc2)NC(=O)[C@@H]2CCCN2C1=O [Compound 2246]	< 1000	–
CC(C)(C)OC(=O)N[C@H]1CCCCC/C=C\[C@@H]2C[C@@]2(C(=O)NC2CCC2)NC(=O)[C@@H]2CCCN2C1=O [Compound 2303]	–	IC50 [1]: < 1000 nM
CC(C)(C)OC(=O)N[C@H]1CCCCC/C=C\[C@@H]2C[C@@]2(C(=O)NS(=O)(=O)NC2CC2c2ccccc2)NC(=O)[C@@H]2CCCN2C1=O (some centres unmarked) [Compound 2224]	< 10000	–
CC(C)(C)OC(=O)N[C@H]1CCCCC/C=C\[C@@H]2C[C@@]2(C(=O)NC#N)NC(=O)[C@@H]2CCCN2C1=O [Compound 2306]	–	IC50 [1]: < 1000 nM
CC(C)(C)OC(=O)N[C@H]1CCCCC/C=C\[C@@H]2C[C@@]2(C(=O)NS(=O)(=O)c2cccc3ccccc23)NC(=O)[C@@H]2CCCN2C1=O [Compound 2148]	< 10000	–
